# Values of other authors as cited in patent publication US20260144768A1, “MODIFIED RELEASE GAMMA-HYDROXYBUTYRATE FORMULATIONS HAVING IMPROVED PHARMACOKINETICS” (Flamel Ireland Limited, priority 2022, published 2026).
# Like-named read-outs stand apart in the source and are kept apart here.
# Assays:
# plasma proteins = details: GHB 3 mcg/mL to 300 mcg/mL
# [1] = not given; remark: listed apart in the source
# mouse = details: 2-year study
# rat [2] = details: 2-year study
# CYP1A2 = target: T1, CYP1A2 (Homo sapiens, UniProt P05177); details: up to 3 mM (378 mcg/mL)
# T1 sequence (P05177 1-516): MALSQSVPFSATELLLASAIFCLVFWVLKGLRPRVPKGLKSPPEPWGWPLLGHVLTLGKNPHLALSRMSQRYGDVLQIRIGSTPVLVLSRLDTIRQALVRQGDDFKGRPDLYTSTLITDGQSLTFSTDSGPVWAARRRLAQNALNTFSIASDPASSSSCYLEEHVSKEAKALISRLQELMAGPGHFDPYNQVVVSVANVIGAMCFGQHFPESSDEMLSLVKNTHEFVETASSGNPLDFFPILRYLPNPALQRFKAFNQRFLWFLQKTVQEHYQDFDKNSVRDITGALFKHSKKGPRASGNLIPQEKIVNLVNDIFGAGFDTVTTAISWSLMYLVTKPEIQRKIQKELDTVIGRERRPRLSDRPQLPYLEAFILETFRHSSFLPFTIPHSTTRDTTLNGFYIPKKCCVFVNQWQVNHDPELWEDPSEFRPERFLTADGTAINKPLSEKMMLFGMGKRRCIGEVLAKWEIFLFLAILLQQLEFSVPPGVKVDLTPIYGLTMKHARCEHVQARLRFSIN
# CYP2C9 = CYP2C9 (Homo sapiens, UniProt P11712); details: up to 3 mM (378 mcg/mL)
# CYP2C9, sequence (P11712 whole entry): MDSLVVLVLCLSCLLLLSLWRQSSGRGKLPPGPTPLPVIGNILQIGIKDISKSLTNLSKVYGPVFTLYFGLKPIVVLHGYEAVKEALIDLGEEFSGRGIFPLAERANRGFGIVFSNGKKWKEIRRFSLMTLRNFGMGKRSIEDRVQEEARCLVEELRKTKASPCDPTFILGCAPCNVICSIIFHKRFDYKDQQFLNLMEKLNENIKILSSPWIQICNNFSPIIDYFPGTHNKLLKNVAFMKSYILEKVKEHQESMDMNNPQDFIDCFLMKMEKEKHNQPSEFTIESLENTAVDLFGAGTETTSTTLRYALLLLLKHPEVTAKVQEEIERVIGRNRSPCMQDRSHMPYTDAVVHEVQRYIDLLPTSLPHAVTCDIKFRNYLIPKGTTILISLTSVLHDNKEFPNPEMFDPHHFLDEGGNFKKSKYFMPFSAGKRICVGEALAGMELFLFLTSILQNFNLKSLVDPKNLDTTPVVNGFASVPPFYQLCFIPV
# CYP2C19 = CYP2C19 (Homo sapiens, UniProt P33261); details: up to 3 mM (378 mcg/mL)
# CYP2C19, sequence (P33261 whole entry): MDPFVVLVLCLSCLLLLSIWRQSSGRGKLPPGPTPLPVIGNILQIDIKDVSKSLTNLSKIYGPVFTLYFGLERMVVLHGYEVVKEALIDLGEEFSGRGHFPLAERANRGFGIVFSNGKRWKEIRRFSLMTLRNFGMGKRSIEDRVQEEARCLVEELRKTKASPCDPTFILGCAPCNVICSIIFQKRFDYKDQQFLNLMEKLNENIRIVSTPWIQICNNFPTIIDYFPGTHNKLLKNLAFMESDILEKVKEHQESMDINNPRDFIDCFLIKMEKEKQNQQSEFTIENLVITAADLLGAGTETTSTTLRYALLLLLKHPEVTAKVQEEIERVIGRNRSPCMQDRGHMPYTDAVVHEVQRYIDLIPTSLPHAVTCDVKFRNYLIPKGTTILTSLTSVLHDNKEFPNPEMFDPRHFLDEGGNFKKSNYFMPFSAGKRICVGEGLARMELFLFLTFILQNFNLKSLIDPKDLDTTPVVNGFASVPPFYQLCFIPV
# CYP2D6 = CYP2D6 (Homo sapiens, UniProt P10635); details: up to 3 mM (378 mcg/mL)
# CYP2D6, sequence (P10635 whole entry): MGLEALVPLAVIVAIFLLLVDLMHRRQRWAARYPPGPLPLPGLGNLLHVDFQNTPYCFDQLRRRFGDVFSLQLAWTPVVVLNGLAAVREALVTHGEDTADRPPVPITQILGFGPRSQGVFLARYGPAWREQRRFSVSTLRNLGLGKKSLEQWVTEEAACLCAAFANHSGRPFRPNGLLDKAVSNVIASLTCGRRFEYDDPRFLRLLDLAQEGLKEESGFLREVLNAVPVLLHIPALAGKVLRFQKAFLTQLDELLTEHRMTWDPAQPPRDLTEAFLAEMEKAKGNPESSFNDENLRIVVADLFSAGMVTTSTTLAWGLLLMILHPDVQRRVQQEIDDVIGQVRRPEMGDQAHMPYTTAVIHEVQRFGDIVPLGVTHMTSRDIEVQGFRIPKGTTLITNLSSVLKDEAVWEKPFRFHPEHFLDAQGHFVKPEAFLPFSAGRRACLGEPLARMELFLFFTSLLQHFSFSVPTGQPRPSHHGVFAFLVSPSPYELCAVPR
# CYP2E1 = CYP2E1 (Homo sapiens, UniProt P05181); details: up to 3 mM (378 mcg/mL)
# CYP2E1, sequence (P05181 whole entry): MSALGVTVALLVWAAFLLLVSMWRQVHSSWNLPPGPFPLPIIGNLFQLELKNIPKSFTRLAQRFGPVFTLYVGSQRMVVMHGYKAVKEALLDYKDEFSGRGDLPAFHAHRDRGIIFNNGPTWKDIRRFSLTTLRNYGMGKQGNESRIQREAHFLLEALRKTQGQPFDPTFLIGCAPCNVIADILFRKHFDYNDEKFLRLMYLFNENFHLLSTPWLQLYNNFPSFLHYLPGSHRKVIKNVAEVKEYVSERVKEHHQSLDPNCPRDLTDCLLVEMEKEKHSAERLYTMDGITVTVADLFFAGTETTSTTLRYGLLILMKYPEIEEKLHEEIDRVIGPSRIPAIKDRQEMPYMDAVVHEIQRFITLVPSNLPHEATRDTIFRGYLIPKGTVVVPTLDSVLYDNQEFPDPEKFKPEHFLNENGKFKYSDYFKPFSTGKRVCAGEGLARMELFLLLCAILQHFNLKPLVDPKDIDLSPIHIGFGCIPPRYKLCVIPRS
# CYP3A = details: up to 3 mM (378 mcg/mL)
# [3] = 6 g per day (2 × 3 g) with ibuprofen 800 mg/dose four times per day
# rats [4] = system: rats
# bacterial gene mutation = details: in vitro
# mammalian cells = details: in vitro
# rat [5] = details: in vivo
# rats [6] = details: 150, 350, or 1,000 mg/kg/day oral
# pregnant rats = details: 150, 350, or 1,000 mg/kg/day oral
# pregnant rabbits = details: 300, 600, or 1,200 mg/kg/day oral
# rats [7] = system: rats; remark: listed apart in the source
compound,measurement,setting,value
"O=C(O)CCCO [GHB, gamma-hydroxybutyrate]",Apparent volume of distribution,in vivo,0.19 to 0.384 L/kg
same,Elimination half-life,in vivo,30 to 60 min
same,Unchanged drug in human urine,within 6 to 8 hours after dosing,less than 5%
same,Bound to plasma proteins,plasma proteins,less than 1%
same,Apparent oral clearance,[1]; Child's Class A,4.5 mL/min/kg
same,Mean t1/2,[1]; Child's Class A,32 min
same,Apparent oral clearance,[1]; Child's Class C,4.1 mL/min/kg
same,Mean t1/2,[1]; Child's Class C,59 min
same,Mean t1/2,[1]; control patients,22 min
same,Apparent oral clearance,[1]; healthy adults,9.1 mL/min/kg
O=C1CCCO1 [gamma-butyrolactone],Carcinogenic activity,mouse,no clear evidence of carcinogenic activity
same,Carcinogenic activity,rat [2],no clear evidence of carcinogenic activity
"O=C([O-])CCCO.[Na+] [sodium oxybate, sodium 4-hydroxybutyrate]",Inhibition of CYP1A2 activity,CYP1A2,does not significantly inhibit
same,Inhibition of CYP2C9 activity,CYP2C9,does not significantly inhibit
same,Inhibition of CYP2C19 activity,CYP2C19,does not significantly inhibit
same,Inhibition of CYP2D6 activity,CYP2D6,does not significantly inhibit
same,Inhibition of CYP2E1 activity,CYP2E1,does not significantly inhibit
same,Inhibition of CYP3A activity,CYP3A,does not significantly inhibit
same,Systemic exposure to GHB on co-administration,[3],comparable
same,Plasma exposure (AUC) relative to humans at the MRHD of 9 g per night,rats [4]; highest dose tested,2 times
same,Tumors,"rats [4]; oral doses up to 1,000 mg/kg/day",no increase in tumors
same,Bacterial gene mutation,bacterial gene mutation,negative
same,Chromosomal aberration,mammalian cells,negative
same,Micronucleus,rat [5],negative
same,Effects on fertility,rats [6],no adverse effects on fertility
same,Developmental toxicity,pregnant rats,no clear evidence of developmental toxicity
same,Developmental toxicity,pregnant rabbits,no clear evidence of developmental toxicity
same,Mortality,"rats [7]; 0, 100, 300, or 900 mg/kg/day, two highest doses",mortality was observed
same,Findings at the highest dose tested,rats [7]; 900 mg/kg/day,Reduced body weight gain in males and females and delayed sexual maturation in males
